The record followed here is patent US4208424A, “Lipogenesis inhibition by certain esters of substituted benzodioxincarboxylic acids” (Shell Oil Company, priority 1979, dated 1980).

In the assay the test system is lipogenesis in swine adipose tissue. Briefly: inhibition of lipogenesis (incorporation of radioactive glucose carbon into lipid) in swine adipose tissue slices. The format is cell-based. Particulars: 100 micrograms per milliliter, 37° C., 2 hours, glucose-U^14 C, insulin, 5% DMSO, triplicate. From the text:
The manner in which they cause this effect is not known with certainty; it is believed that they interfere with the synthesis of fatty acids in the tissues. Their effectiveness for this purpose has been ascertained by immersing samples of swine adipose tissue in a liquid medium containing radioactive glucose and the test chemical for a period of time, then isolating the lipid from the treated tissue and determining the incorporation of the radioactive carbon into lipid by means of scintillation counting techniques. These tests were conducted in swine adipose tissues because in swine, the primary site of lipogenesis--i.e., fatty acid synthesis--appears to be adipose tissue.
Described in more detail, the tests were conducted according to the following general procedure:
150 milligrams of slices of swine adipose tissue were incubated at 37° C. for 2 hours with shaking in 3 milliliters of Krebs-Ringer bicarbonate solution containing one-half the normal calcium ion concentration, 60 micromoles of glucose, 0.5 micro-Curie of glucose-U^14 C, and 300 microunits of insulin, and 5% dimethyl sulfoxide (DMSO). The test compounds were added as a solution or suspension in DMSO and were present at a concentration of 100 micrograms per milliliter of the incubation mixture.
The incubation was terminated by addition of 0.25 milliliter of 1 N sulfuric acid. The resulting mixture was extracted with a total of 25 milliliters of chloroform/methanol (2:1 v/v). The extracts were washed according to Folch et al. (J. Biol. Chem. 226, 497-509, (1957)), air dried, and counted in a liquid scintillation counter with 15 m milliliters of counting fluid (two parts toluene containing 0.4% w/v New England Nuclear Omnifluor/1 part Triton X-100). The tests were conducted in triplicate and were accompanied by control tests in which all ingredients,proportions and conditions were the same except that no test compound was included. From the data obtained were calculated the percent inhibition of lipid synthesis by the test compounds in each case. The data obtained from the tests are set out in Table 1, as the percent inhibition of lipogenesis compared to the results obtained in the control tests wherein only the test compound was omitted.

`CCOC(=O)C1COc2ccccc2O1` (stereo not shown) [Compound 1, Ethyl 2,3-dihydro-1,4-benzodioxin-2-carboxylate]: the “Percent Inhibition (of lipogenesis compared to control tests)” value (shortened to “Percent Inhibition”) worked out at 22%.

`CCOC(=O)C1COc2cc(C)c(C)cc2O1` (stereo not shown) [Compound 6, Ethyl 2,3-dihydro-6,7-dimethyl-1,4-benzodioxin-2-carboxylate]: the “Percent Inhibition” value stood at 29%. Next, `CCOC(=O)C1COc2ccc(-c3ccccc3)cc2O1` (stereo not shown) [Compound 8, Ethyl 2,3-dihydro-7-phenyl-1,4-benzodioxin-2-carboxylate]: 28%; “Ethyl 6(and 7)-bromo-2,3-dihydro-1,4-benzodioxin-2-carboxylate [Compound 4]”: 43%; “Ethyl 2,3-dihydro-6(and 7)-fluoro-1,4-benzodioxin-2-carboxylate [Compound 3]”: 48%.

`CCOC(=O)C1COc2cc(-c3ccccc3)ccc2O1` (stereo not shown) [Compound 7, Ethyl 2,3-dihydro-6-phenyl-1,4-benzodioxin-2-carboxylate]: the “Percent Inhibition” value is reported as 21%. Next, `CCOC(=O)C1COc2ccc(C(C)O)cc2O1` (stereo not shown) [Compound 9, Ethyl 2,3-dihydro-7-(1-hydroxyethyl)-1,4-benzodioxin-2-carboxylate]: 90%; “Ethyl 2,3-dihydro-6(and 7)-methyl-1,4-benzodioxin-2-carboxylate [Compound 2]”: 30%. As for “Ethyl 2,3-dihydro-6(and 7)-methoxy-1,4-benzodioxin-2-carboxylate [Compound 10]”, the “Percent Inhibition” value came out at 85%. Consider “Ethyl 2,3-dihydro-8(and 5)-methoxy-1,4-benzodioxin-2-carboxylate [Compound 5]”, for which the “Percent Inhibition” value is 86%.
